Test system: 991263-137-R1-J2-PDC complex spheroid viability
Experiment: Anticancer human tumor 991263-137-R1-J2-PDC patient-derived colon adenocarcinoma cell line growth inhibition [POLQ]
Settings: for IC50: curve of first compound; for viability, T/C: stronger effect = lower value
Experimental: Multicellular complex tumor spheroid response to Polymerase (POL) inhibitors (novobiocin, ART-558, RP6685) in combination with a variety of drugs and investigational agents in selected tumor cell lines
The POL inhibitors (novobiocin, ART-558, and RP6685) were evaluated both individually and in combination with standard of care and investigational anticancer small molecules within a complex spheroid model of solid tumors. . Complex spheroids include a stromal component modeled by human endothelial cells (HUVEC) and fibroblasts modeled by human mesenchymal stem cells (MSCs). The concentration ranges selected for each drug and investigational agent were based upon clinically achievable concentrations if the clinical Cmax of the agent was known.
Compounds. The drugs and investigational agents: novobiocin (NSC847541), ART-558 (NSC835418), RP-6685 (NSC848927), peposertib (NSC802822), ceralasertib (NSC780249), elimusertib (NSC800525), camonsertib (NSC841442), AZD-1390 (NSC803789), olaparib (NSC753686), talazoparib (NSC767125), rucaparib (NSC756644), sotorasib (NSC818433), MRTX-1133 (NSC836407), SN-38 (NSC673596), topotecan (NSC609699), epotoside (NSC141540), doxorubicin (NSC123127), gemcitabine (NSC613327), 5-fluorouracil (NSC19893), paclitaxel (NSC125973), vemurafenib (NSC761431), MSA-2 (NSC828583), SN-011 (NSC837082), adavosertib (NSC754352), prexasertib (NSC758257), carboplatin (NSC241240) and oxaliplatin (NSC266046), were obtained from the National Cancer Institute (NCI) Developmental Therapeutics Program Chemical Repository (21). The FDA-approved anticancer drug set is available from the Developmental Therapeutics Program at https://dtp.cancer.gov/organization/dscb/obtaining/. […] The stock solutions were prepared in dimethyl sulfoxide (DMSO, Sigma-Aldrich, St. Louis, MO, cat. D2650), except for the platinum compounds which were prepared in saline (Quality Biological, Gaithersburg, MD, cat. 114-055-101), at 800-fold the tested concentration and stored at -70 degrees C prior to their use. All drugs and investigational agents were tested over a range starting from a high concentration at or near the clinical Cmax and decreasing in half-log increments. If the clinical Cmax for an agent had not been determined, the highest concentration tested was 10 microM, except for SN-38, which was tested at a high concentration of 1 microM.
Cell Culture. All cells were maintained in an incubator at 37 degrees C and 5% CO2 with 95% humidity. The PDC lines were cultured according to standard operating procedures established by the NCI PDMR (https://pdmr.cancer.gov). Table 3 of the manuscript, lists the cell lines along with the number of the three cell types plated to form the mct-spheroids and media for tumor cell growth. After thawing, all PDC lines, except 997537-175-T-J1-PDC and 415267-285-R-J2-PDC, were cultured in Matrigel-coated flasks prepared with a working solution of 1X Ham's F-12 nutrient mix, without supplementation (Thermo Fisher Scientific, cat. 11765054), 100 U/mL penicillin-streptomycin (Thermo Fisher Scientific, cat. 15140122), and 2.5% Matrigel (Corning Inc., Corning, NY, cat. 354248) for the first three passages. The two PDC lines 997537-175-T-J1-PDC and 415267-285-R-J2-PDC were cultured on uncoated flasks. The 857933-349-R-J2-PDC line was cultured in 6C/Colon 1B media containing advanced DMEM/F-12 (Thermo Fisher Scientific, cat. 12634028), 10 mM HEPES (Thermo Fisher Scientific, cat. 15630080), 1X GlutaMAX supplement (Thermo Fisher Scientific, cat. 35050061), 0.1 mg/mL primocin (InvivoGen, San Diego, CA, cat. ant-pm-2), 10% defined fetal bovine serum, heat inactivated (HyClone Laboratories Inc., Logan, UT, cat. SH30070.03HI), 50% L-WRN conditioned media (ATCC, cat. CRL-3276), 1.25 mM N-Acetyl-L-cysteine (Sigma-Aldrich, cat. A9165), 10 mM nicotinamide (Sigma-Aldrich, cat. N0636), 1X B-27 supplement (Thermo Fisher Scientific, cat. 17504044), 1X N-2 supplement (Thermo Fisher Scientific, cat. […]
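Also: spheroids exposed to compounds for 7 days before readout.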
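For viability, T/C in this document: 100% = DMSO vehicle control viability.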

With `CC(=O)O[C@H]1C(=O)[C@@]2(C)[C@H]([C@H](OC(=O)c3ccccc3)[C@]3(O)C[C@H](OC(=O)[C@H](O)[C@@H](NC(=O)c4ccccc4)c4ccccc4)C(C)=C1C3(C)C)[C@]1(OC(C)=O)CO[C@@H]1C[C@@H]2O` + COC1C(OC(N)=O)C(O)C(Oc2ccc3c(O)c(NC(=O)c4ccc(O)c(CC=C(C)C)c4)c(=O)oc3c2C)OC1(C)C the IC50 (second compound 0.0316 µM) was greater than 3 µM, the IC50 (second compound 0.1 µM) was 1.95 µM and the IC50 (second compound 0.316 µM) was 1.58 µM. It also gave an IC50 (second compound 1 µM) of 1.54 µM, an IC50 (second compound 3.16 µM) of 1.85 µM and an IC50 (second compound 10 µM) of 1.7 µM. For the same molecule, the viability, T/C (second compound 0.0316 µM, first compound 0.00949 µM) was 90%, the viability, T/C (second compound 0.0316 µM, first compound 0.03 µM) was 100% and the viability, T/C (second compound 0.0316 µM, first compound 0.0949 µM) was 75.2%. It also gave a viability, T/C (second compound 0.0316 µM, first compound 0.3 µM) of 54.2%, a viability, T/C (second compound 0.0316 µM, first compound 0.949 µM) of 51.6% and a viability, T/C (second compound 0.0316 µM, first compound 3 µM) of 48.9%. The viability, T/C (second compound 0.1 µM, first compound 0.00949 µM) was 100%, the viability, T/C (second compound 0.1 µM, first compound 0.03 µM) was 90.3% and the viability, T/C (second compound 0.1 µM, first compound 0.0949 µM) was 78.7%. For the same molecule, the viability, T/C (second compound 0.1 µM, first compound 0.3 µM) was 83%, the viability, T/C (second compound 0.1 µM, first compound 0.949 µM) was 58.8% and the viability, T/C (second compound 0.1 µM, first compound 3 µM) was 43%. It also gave a viability, T/C (second compound 0.316 µM, first compound 0.00949 µM) of 103%, a viability, T/C (second compound 0.316 µM, first compound 0.03 µM) of 97% and a viability, T/C (second compound 0.316 µM, first compound 0.0949 µM) of 75.5%. For the same molecule, the viability, T/C (second compound 0.316 µM, first compound 0.3 µM) was 74.3%, the viability, T/C (second compound 0.316 µM, first compound 0.949 µM) was 50.3% and the viability, T/C (second compound 0.316 µM, first compound 3 µM) was 45.4%. It also gave a viability, T/C (second compound 1 µM, first compound 0.00949 µM) of 93.2%, a viability, T/C (second compound 1 µM, first compound 0.03 µM) of 97.5% and a viability, T/C (second compound 1 µM, first compound 0.0949 µM) of 83.8%. For the same molecule, the viability, T/C (second compound 1 µM, first compound 0.3 µM) was 74.1%, the viability, T/C (second compound 1 µM, first compound 0.949 µM) was 55.6% and the viability, T/C (second compound 1 µM, first compound 3 µM) was 42.1%. The viability, T/C (second compound 3.16 µM, first compound 0.00949 µM) was 96.2%, the viability, T/C (second compound 3.16 µM, first compound 0.03 µM) was 83.5% and the viability, T/C (second compound 3.16 µM, first compound 0.0949 µM) was 81.4%. It also gave a viability, T/C (second compound 3.16 µM, first compound 0.3 µM) of 70.6%, a viability, T/C (second compound 3.16 µM, first compound 0.949 µM) of 54.5% and a viability, T/C (second compound 3.16 µM, first compound 3 µM) of 45.7%. The viability, T/C (second compound 10 µM, first compound 0.00949 µM) was 86.7%, the viability, T/C (second compound 10 µM, first compound 0.03 µM) was 91.2% and the viability, T/C (second compound 10 µM, first compound 0.0949 µM) was 96%. For the same molecule, the viability, T/C (second compound 10 µM, first compound 0.3 µM) was 81%, the viability, T/C (second compound 10 µM, first compound 0.949 µM) was 57.1% and the viability, T/C (second compound 10 µM, first compound 3 µM) was 43.4%.

For `O=c1[nH]cc(F)c(=O)[nH]1` + COC1C(OC(N)=O)C(O)C(Oc2ccc3c(O)c(NC(=O)c4ccc(O)c(CC=C(C)C)c4)c(=O)oc3c2C)OC1(C)C, the IC50 (second compound 0.0316 µM) was greater than 10 µM, the IC50 (second compound 0.1 µM) was greater than 10 µM and the IC50 (second compound 0.316 µM) was greater than 10 µM. The IC50 (second compound 1 µM) was greater than 10 µM, the IC50 (second compound 3.16 µM) was greater than 10 µM and the IC50 (second compound 10 µM) was greater than 10 µM. It also gave a viability, T/C (second compound 0.0316 µM, first compound 0.0316 µM) of 94%, a viability, T/C (second compound 0.0316 µM, first compound 0.1 µM) of 101% and a viability, T/C (second compound 0.0316 µM, first compound 0.316 µM) of 91%. For the same molecule, the viability, T/C (second compound 0.0316 µM, first compound 1 µM) was 94%, the viability, T/C (second compound 0.0316 µM, first compound 3.16 µM) was 87% and the viability, T/C (second compound 0.0316 µM, first compound 10 µM) was 79.3%. For the same molecule, the viability, T/C (second compound 0.1 µM, first compound 0.0316 µM) was 103%, the viability, T/C (second compound 0.1 µM, first compound 0.1 µM) was 104% and the viability, T/C (second compound 0.1 µM, first compound 0.316 µM) was 108%. For the same molecule, the viability, T/C (second compound 0.1 µM, first compound 1 µM) was 82.1%, the viability, T/C (second compound 0.1 µM, first compound 3.16 µM) was 95.1% and the viability, T/C (second compound 0.1 µM, first compound 10 µM) was 62.5%. It also gave a viability, T/C (second compound 0.316 µM, first compound 0.0316 µM) of 87.4%, a viability, T/C (second compound 0.316 µM, first compound 0.1 µM) of 118% and a viability, T/C (second compound 0.316 µM, first compound 0.316 µM) of 76.6%. The viability, T/C (second compound 0.316 µM, first compound 1 µM) was 92.6%, the viability, T/C (second compound 0.316 µM, first compound 3.16 µM) was 88.1% and the viability, T/C (second compound 0.316 µM, first compound 10 µM) was 84.4%. The viability, T/C (second compound 1 µM, first compound 0.0316 µM) was 99%, the viability, T/C (second compound 1 µM, first compound 0.1 µM) was 97.8% and the viability, T/C (second compound 1 µM, first compound 0.316 µM) was 101%. It also gave a viability, T/C (second compound 1 µM, first compound 1 µM) of 82.6%, a viability, T/C (second compound 1 µM, first compound 3.16 µM) of 77.3% and a viability, T/C (second compound 1 µM, first compound 10 µM) of 69.4%. It also gave a viability, T/C (second compound 3.16 µM, first compound 0.0316 µM) of 65%, a viability, T/C (second compound 3.16 µM, first compound 0.1 µM) of 86.3% and a viability, T/C (second compound 3.16 µM, first compound 0.316 µM) of 97.9%. For the same molecule, the viability, T/C (second compound 3.16 µM, first compound 1 µM) was 92.3%, the viability, T/C (second compound 3.16 µM, first compound 3.16 µM) was 82.3% and the viability, T/C (second compound 3.16 µM, first compound 10 µM) was 74.9%. The viability, T/C (second compound 10 µM, first compound 0.0316 µM) was 90.6%, the viability, T/C (second compound 10 µM, first compound 0.1 µM) was 107% and the viability, T/C (second compound 10 µM, first compound 0.316 µM) was 87.3%. For the same molecule, the viability, T/C (second compound 10 µM, first compound 1 µM) was 83.7%, the viability, T/C (second compound 10 µM, first compound 3.16 µM) was 90.3% and the viability, T/C (second compound 10 µM, first compound 10 µM) was 78.3%.

— PubChem BioAssay AID1963828 (Molecular Pharmacology Branch, DTP, NCI, 2024)
